The test system of data set [1] is boar sperm. Particulars: cited from earlier work.
Data set [2] relates to rodents. Particulars: in vivo; cited from earlier work.
Data set [3] concerns boar sperm.
Data set [4] concerns PK-15 (porcine kidney epithelial cells) and/or FFL (feline fetus lung cells).
Data set [5] concerns differentiated PK-15 cells.
The subject of data set [6] is boar sperm and PK-15 cells.
Data set [7] deals with boar sperm. The experiment in a line: cells.
In data set [8] the test system is PK-15 (porcine kidney epithelial cells) and/or FFL (feline fetus lung cells). Kind of data set: cells. Particulars: Sus scrofa.
Data set [9] relates to differentiated PK-15 cells. Kind of data set: cells. Particulars: Sus scrofa, PK-15, read-out: Mitochondrial Toxicity 1d (EC50, acceleration of glycolysis and depolarization of mitochondria).
The test system of data set [10] is Fish. The note with it: cited from earlier work.
The test system of data set [11] is Rat. Particulars: po; cited from earlier work.
[12] abbreviates: 72 h, read-out: EC50 Ex Vivo BSMI 1–3d.
Setting [13] is: PK-15, 48 h, read-out: EC50 In Vitro ICP 2d.
The mark [14] stands for this setting: read-out: EC50 Ex Vivo BSMI, positive controls, mean of 10 or 11 measurements.
[15] abbreviates: PK-15, read-out: EC50 In Vitro ICP, positive controls, mean of 10 or 11 measurements.

Values after ≈ are worked out from the molar mass of the structure shown. Like-named read-outs stand apart in the source and are kept apart here.

We go through six compounds from paper PMC10974995 (Pathogens, 2024).

With `CC(C)C[C@H]1OC(=O)[C@H](C(C)C)NC(=O)[C@H](C(C)C)OC(=O)[C@@H](C)NC(=O)[C@@H](CC(C)C)OC(=O)[C@H](C(C)C)NC(=O)[C@H](C(C)C)OC(=O)[C@@H](C)NC(=O)[C@@H](CC(C)C)OC(=O)[C@H](C(C)C)NC(=O)[C@H](C(C)C)OC(=O)[C@@H](C)NC1=O` [Cereulide], the “Toxicity in sperm motility tests” value in data set [1] is on record as “toxic”. Moreover, the “Toxicity to rodents” value in [2] is reported as “non-toxic”.
Consider `CCCCCCCCCC[N+](C)(C)CCCCCCCCCC` [DDAC, Didecyl- dimethyl- ammonium- chloride], for which the “Ex Vivo BSMI 1–3d, toxic (+) / nontoxic (−), xenobiotic chemicals” value in data set [3] (pig (boar)) is “(+) 1 (key: (+): For the xenobiotic chemicals, EC50 values < 10 µg mL^−1 and <20 µg mL^−1 were considered as toxic in the BSMI assay and in the ICP assay, respectively; nontoxic as (−))”. The “In Vitro ICP 2d, toxic (+) / nontoxic (−), xenobiotic chemicals” value in data set [4] was “(+) 0.5 (key: (+): For the xenobiotic chemicals, EC50 values < 10 µg mL^−1 and <20 µg mL^−1 were considered as toxic in the BSMI assay and in the ICP assay, respectively; nontoxic as (−))”. For the same compound, in [5], the “Mitochondrial toxicity after testing with somatic cells” value is “Mitochondrial toxicity was recorded”. For the same compound, in data set [6], the “Toxicity profile of pure toxins and chemicals in the BSMI and ICP assays” value (“Toxicity profile” below) was “highly toxic in both assays”. The EC50 in data set [7] (setting [12]) is 1 µg/mL; in [8] (setting [13]), 0.5 µg/mL; in data set [9], 1 µg/mL. Moreover, the “In Vivo (toxicity to experimental animals), xenobiotic chemicals” value in [10] is listed as “+ (key: LD50 Fish Inhaled <10 μg mL ^–1 = Toxic in vivo Marked as +.)”. In addition, in data set [10], the “Toxicity In Vivo LD50 Fish” value is 0.5 mg/L. The “Toxicity In Vivo LD50 Rat p.o.” value in data set [11] is 238 mg/kg.
For `CC(C)[C@H]1C(=O)O[C@H](C(C)C)C(=O)N(C)[C@@H](C(C)C)C(=O)O[C@H](C(C)C)C(=O)N(C)[C@@H](C(C)C)C(=O)O[C@H](C(C)C)C(=O)N1C` [Enniatin B], in data set [3] (pig (boar)), the “Ex Vivo BSMI 1–3d, toxic (+) / nontoxic (−), microbial metabolites” value is “(+) 0.5 (key: (+): For the microbial metabolites, EC50 < 5 µg mL^−1 and <10 µg mL^−1 were considered as toxic in the BSMI and ICP assays, respectively; nontoxic as (−))”. Also, the “In Vitro ICP 2d, toxic (+) / nontoxic (−), microbial metabolites” value in [4] is listed as “(−) 15”. For the same compound, the EC50 in [7] (setting [12]) came to 0.5 µg/mL (≈ 0.781 µM); in data set [7] (setting [14]), 0.6 µg/mL (≈ 0.938 µM); in data set [8] (setting [13]), 15 µg/mL (≈ 23.4 µM); in [8] (setting [15]), 18 µg/mL (≈ 28.1 µM); in [9] it was 2 µg/mL (≈ 3.13 µM). Further, the “In Vivo (toxicity to experimental animals), mycotoxins and fungal metabolites” value (“In Vivo … mycotoxins and fungal metabolites” below) in data set [11] is reported as “+ (key: LD50 rat p.o. <1000 mg kg ^–1 Classified as Toxic in vivo +.)”. In addition, in [11], the “Toxicity In Vivo LD50 Rat p.o.” value is 350 mg/kg.
Consider `C[C@@H]1Cc2c(Cl)cc(C(=O)N[C@@H](Cc3ccccc3)C(=O)O)c(O)c2C(=O)O1` [Ochratoxin A], for which the “Ex Vivo BSMI 1–3d, toxic (+) / nontoxic (−), microbial metabolites” value in data set [3] (pig (boar)) is reported as “(−) >50”. Moreover, in data set [4], the “In Vitro ICP 2d, toxic (+) / nontoxic (−), microbial metabolites” value was “(−) >50”. Further, the “Toxicity profile” value in data set [6] is given as “not detected in our assays”. In addition, the EC50 in [7] (setting [12]) is greater than 50 µg/mL. Moreover, the EC50 in data set [8] (setting [13]) is greater than 50 µg/mL. Besides, in data set [11], the “In Vivo … mycotoxins and fungal metabolites” value is “+ (key: LD50 rat p.o. <1000 mg kg ^–1 Classified as Toxic in vivo +.)”; the “Toxicity In Vivo LD50 Rat p.o.” value was 20 mg/kg.
Take `Oc1cc(Cl)ccc1Oc1ccc(Cl)cc1Cl` [Triclosan, Triclorooxy-phenylether]: the “Sperm motility relative to the negative control” value in data set [3] is less than 20%. In addition, in [3] (pig (boar)), the “Ex Vivo BSMI 1–3d, toxic (+) / nontoxic (−), xenobiotic chemicals” value is “(+) 1 (key: (+): For the xenobiotic chemicals, EC50 values < 10 µg mL^−1 and <20 µg mL^−1 were considered as toxic in the BSMI assay and in the ICP assay, respectively; nontoxic as (−))”. For the same compound, the “In Vitro ICP 2d, toxic (+) / nontoxic (−), xenobiotic chemicals” value in [4] was 20 (−). For the same compound, in data set [5], the “Mitochondrial toxicity after testing with somatic cells” value is on record as “Mitochondrial toxicity was recorded”. The EC50 in data set [7] (setting [12]) was found to be 1 µg/mL (≈ 3.45 µM); in [7] (setting [14]), 1 µg/mL (≈ 3.45 µM); in [8] (setting [13]), 20 µg/mL (≈ 69.1 µM); in [8] (setting [15]) it was 13 µg/mL (≈ 44.9 µM); in [9], 5 µg/mL (≈ 17.3 µM). In addition, the “In Vivo (toxicity to experimental animals), xenobiotic chemicals” value in data set [10] is “+ (key: LD50 Fish Inhaled <10 μg mL ^–1 = Toxic in vivo Marked as +.)”. For the same compound, the “Toxicity In Vivo LD50 Fish” value in [10] was 0.5 mg/L. In addition, in [11], the “Toxicity In Vivo LD50 Rat p.o.” value was 3700 mg/kg.
Regarding Alamethicin, in [3], the “EC50 Ex Vivo BSMI 1–3d” value was “(+) 0.5 μg mL^–1”; the “Ex Vivo BSMI 1–3d, toxic (+) / nontoxic (−), microbial metabolites” value is “(+) 0.5 (key: (+): For the microbial metabolites, EC50 < 5 µg mL^−1 and <10 µg mL^−1 were considered as toxic in the BSMI and ICP assays, respectively; nontoxic as (−))”. Moreover, in [4], the “EC50 In Vitro ICP 2d” value is given as “(+) 6 μg mL^–1”; the “In Vitro ICP 2d, toxic (+) / nontoxic (−), microbial metabolites” value is “(+) 6 (key: (+): For the microbial metabolites, EC50 < 5 µg mL^−1 and <10 µg mL^−1 were considered as toxic in the BSMI and ICP assays, respectively; nontoxic as (−))”. Besides, the “Toxicity profile” value in data set [6] is “toxic in both the BSMI and ICP tests”. In [11], the “In Vivo … mycotoxins and fungal metabolites” value was “+ (key: LD50 rat p.o. <1000 mg kg ^–1 Classified as Toxic in vivo +.)”; the “Toxicity In Vivo LD50 Rat p.o.” value is 80 mg/kg.
